This note sets out measurements from patent US11548911B2, “Cleavable linker for peptide synthesis” (ROCHE SEQUENCING SOLUTIONS, INC., priority 2018, dated 2023).

The nature of this series: Water solubility of hydrophobic peptide and its linker cleavage fragments. The class given is physicochemical. Here is the method:
In order to enhance solubility of this peptide a variant was prepared in which a cleavable N-terminal poly-lysine tag was synthesized after the peptide sequence and incorporated cleavable linker 1: H-KKKKK—(linker 1) AhaGISFSIRFAIWIRFG-NH2 (10) (SEQ. ID. No: 3). Synthesis and purification of this modified peptide proceeded smoothly according to example 3 (FIG. 2B). Pure peptide 10 was dissolved in a 0.05 M aqueous NaHCO3 solution and shaken for 2 h at r.t. (FIG. 2A). The cleavage reaction released the two peptides 11 and 12: While the poly-lysine tag 11 is water soluble, peptide 12 precipitated under the reaction conditions and could be easily isolated in high purity by centrifugation. • FIG. 2B: LC-MS of H-KKKKK (linker 1)-AhaGISFSIRFAIWIRFG-NH2 (10), MS (ESI): 545.4 [M+5H]^5+, 681.6 [M+4H]^4+, 908.3 [M+3H]^3+, 1362.0 [M+2H]^2+. • FIG. 2C: MS (ESI) of insoluble peptide 12 (MS (ESI): 661.5 [M+3H]^3+, 991.3 [M+2H]^2+, 1322.0 […], 1983.1 [M+H]^+).

Non-standard residues stand in square brackets, D forms with d. Residues, ends and D or L forms follow the SMILES beside them. Aha = [N-]=[N+]=NCC[C@H](N)C(=O)O

For the molecule `CC[C@H](C)[C@H](NC(=O)CNC(=O)[C@@H](N)CCN=[N+]=[N-])C(=O)N[C@@H](CO)C(=O)N[C@@H](Cc1ccccc1)C(=O)N[C@@H](CO)C(=O)N[C@H](C(=O)N[C@@H](CCCNC(=N)N)C(=O)N[C@@H](Cc1ccccc1)C(=O)N[C@@H](C)C(=O)N[C@H](C(=O)N[C@@H](Cc1c[nH]c2ccccc12)C(=O)N[C@H](C(=O)N[C@@H](CCCNC(=N)N)C(=O)N[C@@H](Cc1ccccc1)C(=O)NCC(N)=O)[C@@H](C)CC)[C@@H](C)CC)[C@@H](C)CC` [H-AhaGISFSIRFAIWIRFG-NH2] (H-[Aha]GISFSIRFAIWIRFG-NH2), the solubility in water entry was “insoluble in water”.
